This passage reports Survival results from ChEMBL document CHEMBL4665541, “Search for new therapeutic options for the uncommon pathogen Mycobacterium chimaera: an open drug discovery approach” (Lancet Microbe, 2021).

Format in all cases: functional, organism-based
Set-up in all cases: conc 20 uM

Experiment [1] relates to Mycobacterium intracellulare subsp. chimaera. The experiment in a line: (§1) Inhibition of mycobacterial growth using the resazurin microtitre cell viability assay (REMA), compounds at final concentration of 20 µM (2% v/v DMSO). Hits were classed as compounds that inhibited bacterial growth by 70% or more compared to drug-free controls. The conditions noted are these: NCTC13781. On the technique in general: Resazurin is reduced to fluorescent resorufin, in cell work by metabolically active cells.

The test system of experiment [2] is Mycobacteroides abscessus. The experiment is described as §1. Conditions: ATCC19977.
In experiment [3] the test system is Mycobacterium tuberculosis. The experiment is described as §1. Conditions: H37Rv.

For MMV1236379, the Survival in experiment [1] is 98.4%; in experiment [2], 110%; in experiment [3] it was 96%.
The corresponding values for MMV030734 are 89.4%, 111% and 82.6%.
The corresponding values for MMV676539 are 95.1%, 99.7% and 29.7%.
The corresponding values for MMV000011 are 10.1%, 118% and 22.4%.
For the substance MMV690102, the Survival was 111% in experiment [1], 113% in experiment [2] and 106% in experiment [3].
With MMV688372, the Survival is 112% in experiment [1], 104% in experiment [2] and 88.8% in experiment [3].
Take MMV676008: the Survival in experiment [1] is 116%; in experiment [2], 123%; in experiment [3], 99.7%.
Taken in the same sequence, the figures for MMV688313 were 104%, 94.8% and 102%.
